Columns and labels:
Conditions in all cases: compound at 10 μM
Human δ-opioid (DOP) = biological target: T1, Human δ-opioid (DOP) (Homo sapiens, UniProt P41143); experiment: Radioligand binding, human δ-opioid (DOP) membranes, FlashPlate, [3H]-Bremazocine
T1 construct: purchased Perkin Elmer Biosignal
Method: (§1) Cloned receptor membrane preparations from Perkin Elmer Biosignal™ were used in radioligand binding assays.
(§2) A1 Human δ-opioid (DOP), A2 Human κ-Opioid (KOP), A3 Human Melanocortin (MC3), A4 Human Melanocortin (MC4), A5 Human melanocortin (MC5), A6 Human melanin-concentrating hormone (MCH1), A7 Human μ-opioid (MOP), A8 Human neurokinin (NK1), A9 Human neuropeptide Y (NPY-Y1), A10 Human opioid (ORL1) A11 Mouse urotensin (mUR2)
(§3) Screening experiments were performed in either a 50 μl filtration or 25 μl FlashPlate assay format using the following protocol:
(§4) 19.5 μl buffer, 0.5 μl of compound diluted in DMSO, 5 μl of radioligand diluted in binding buffer.
(§5) The day prior to performing the experiment 50 μl DMSO was added to each well of the compound plates to yield compounds at a final concentration of 10 mM. Daughter plates were then created by diluting the compounds further in DMSO to a concentration of 0.5 mM. The mother plates were frozen immediately.
(§6) Immobilize membranes into FlashPlate microplates using PerkinElmer BioSignal's proprietary coating procedure. Dilute radioligand to 5× the final concentration in binding buffer. Add 19.5 μl buffer to each well of the FlashPlate. Add 0.5 μl of DMSO (total value, 5 wells), reference ligand (non-specific value, 3 wells) or compound to the corresponding wells in the FlashPlate microplate. Initiate the reaction by adding 5 μl of radioligand to each well. Apply TopSeal-A onto FlashPlate microplates. Incubate at room temperature for 1 hour in the dark. Count for 30 seconds per well on TopCount Microplate Scintillation and Luminescence Counter (PerkinElmer) using a count delay of 60 seconds.
(§7) Percentage inhibition was calculated using the following formula: [formula]

Human neurokinin (NK1) = biological target: T2, Human neurokinin (NK1) (Homo sapiens, UniProt P25103); experiment: Radioligand binding, human neurokinin NK1 membranes, filtration, [125I]-Substance P
T2 construct: purchased Perkin Elmer Biosignal
Method: as §1, §2, §3
(§8) 44 μl membranes diluted in buffer, 1 μl of compound diluted in DMSO, 5 μl of radioligand diluted in binding buffer.
as §5
(§9) Thaw membranes on ice then dilute membranes in binding buffer at a concentration of 1 Unit per well. Dilute radio-ligand to 10 times the final concentration in binding buffer. Add 44 μl of diluted membranes to each well of the deep-well plate. Add 1 μl of DMSO (total value, 5 wells), reference ligand (non-specific value, 3 wells) or compound to the corresponding wells in the deep-well plate. Initiate the reaction by adding 5 μl of radioligand to each well and vortex gently. Incubate at room temperature for 1 hour. During incubation, pre-incubate the Multiscreen Harvest plates in 0.3% PEI. Filter over pre-soaked Multiscreen Harvest plates using a Tomtec Harvester. Wash 9 times with 500 μl of cold 50 mM Tris-HCl pH 7.4 at 4° C. and air-dry for 30 minutes at room temperature under a fume hood. Apply a bottom seal to the Multiscreen Harvest plates. Add 25 μl of MicroScint-0 to each well. Apply TopSeal-A to the plate. Count for 30 seconds per well on TopCount Microplate Scintillation and Luminescence Counter (PerkinElmer) using a count delay of 60 seconds.
as §7

Human melanocortin (MC5) = biological target: T3, Human melanocortin (MC5) (Homo sapiens, UniProt P33032); experiment: Radioligand binding, human melanocortin MC5 membranes, FlashPlate, [125I]-NDP-αMSH
T3 construct: purchased Perkin Elmer Biosignal
Method: as §1, §2, §3, §4, §5, §6, §7

Human opioid (ORL1) = biological target: T4, Human opioid (ORL1) (Homo sapiens, UniProt P41146); experiment: Radioligand binding, human opioid ORL1 membranes, FlashPlate, [125I]-Nociceptin
T4 construct: purchased Perkin Elmer Biosignal
Method: as §1, §2, §3, §4, §5, §6, §7

Mouse urotensin (mUR2) = biological target: T5, Mouse urotensin (mUR2) (Mus musculus, UniProt Q8VIH9); experiment: Radioligand binding, mouse urotensin mUR2 membranes, FlashPlate, [125I]-Urotensin II
T5 construct: purchased Perkin Elmer Biosignal
T5 sequence (Q8VIH9 1-385): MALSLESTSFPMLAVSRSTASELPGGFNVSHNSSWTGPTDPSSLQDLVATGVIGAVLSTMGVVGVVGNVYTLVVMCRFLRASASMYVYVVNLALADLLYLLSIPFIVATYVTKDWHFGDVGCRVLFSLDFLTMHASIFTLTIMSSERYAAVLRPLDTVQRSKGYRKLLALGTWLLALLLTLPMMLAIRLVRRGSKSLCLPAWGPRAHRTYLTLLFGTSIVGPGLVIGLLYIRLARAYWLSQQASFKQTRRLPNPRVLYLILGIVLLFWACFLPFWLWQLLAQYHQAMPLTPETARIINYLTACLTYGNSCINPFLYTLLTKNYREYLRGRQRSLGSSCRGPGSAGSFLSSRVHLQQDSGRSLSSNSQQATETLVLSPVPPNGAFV
Method: as §1, §2, §3, §4, §5, §6, §7

Human Melanocortin (MC4) = biological target: T6, Human Melanocortin (MC4) (Homo sapiens, UniProt P32245); experiment: Radioligand binding, human melanocortin MC4 membranes, FlashPlate, [125I]-NDP-αMSH
T6 construct: purchased Perkin Elmer Biosignal
Method: as §1, §2, §3, §4, §5, §6, §7

Human μ-opioid (MOP) = biological target: T7, Human μ-opioid (MOP) (Homo sapiens, UniProt P35372); experiment: Radioligand binding, human μ-opioid (MOP) membranes, FlashPlate, [3H]-Naloxone
T7 construct: purchased Perkin Elmer Biosignal
Method: as §1, §2, §3, §4, §5, §6, §7

Human Melanocortin (MC3) = biological target: T8, Human Melanocortin (MC3) (Homo sapiens, UniProt P41968); experiment: Radioligand binding, human melanocortin MC3 membranes, FlashPlate, [125I]-NDP-αMSH
T8 construct: purchased Perkin Elmer Biosignal
Method: as §1, §2, §3, §4, §5, §6, §7

[1] = biological target: T9, Human neuropeptide Y (NPY-Y1) (Homo sapiens, UniProt P25929); experiment: Radioligand binding, human neuropeptide Y NPY-Y1 membranes, FlashPlate, [125I]-PYY
T9 construct: purchased Perkin Elmer Biosignal
T9 sequence (P25929 1-384): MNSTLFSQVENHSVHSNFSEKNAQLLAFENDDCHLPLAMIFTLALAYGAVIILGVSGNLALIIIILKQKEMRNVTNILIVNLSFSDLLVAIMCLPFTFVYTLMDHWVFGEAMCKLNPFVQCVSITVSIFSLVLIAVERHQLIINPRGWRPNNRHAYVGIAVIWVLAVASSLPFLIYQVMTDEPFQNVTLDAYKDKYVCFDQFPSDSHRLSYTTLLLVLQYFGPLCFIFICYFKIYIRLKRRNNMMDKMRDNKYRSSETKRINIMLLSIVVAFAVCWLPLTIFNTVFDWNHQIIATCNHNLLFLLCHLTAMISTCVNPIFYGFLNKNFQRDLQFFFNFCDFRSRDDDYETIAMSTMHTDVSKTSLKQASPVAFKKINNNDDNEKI
Method: as §1, §2, §3, §4, §5, §6, §7

[2] = biological target: T10, Human melanin-concentrating hormone (MCH1) (Homo sapiens, UniProt Q99705); experiment: Radioligand binding, human melanin-concentrating hormone MCH1 membranes, FlashPlate, [125I]-S36057
T10 construct: purchased Perkin Elmer Biosignal
Method: as §1, §2, §3, §4, §5, §6, §7

Human κ-Opioid (KOP) = biological target: T11, Human κ-Opioid (KOP) (Homo sapiens, UniProt P41145); experiment: Radioligand binding, human κ-opioid (KOP) membranes, filtration, [3H]-Diprenorphine
T11 construct: purchased Perkin Elmer Biosignal
Method: as §1, §2, §3, §8, §5, §9, §7

T8 sequence (P41968 whole entry): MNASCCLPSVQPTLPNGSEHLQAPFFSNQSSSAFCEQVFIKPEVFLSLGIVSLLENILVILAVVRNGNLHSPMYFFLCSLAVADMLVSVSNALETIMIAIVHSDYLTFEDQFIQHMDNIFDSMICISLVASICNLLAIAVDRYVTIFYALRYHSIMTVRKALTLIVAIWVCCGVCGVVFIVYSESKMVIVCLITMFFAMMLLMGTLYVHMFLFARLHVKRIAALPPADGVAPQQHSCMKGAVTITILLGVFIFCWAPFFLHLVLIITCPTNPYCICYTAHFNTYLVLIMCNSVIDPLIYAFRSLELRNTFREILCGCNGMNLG
T3 sequence (P33032 whole entry): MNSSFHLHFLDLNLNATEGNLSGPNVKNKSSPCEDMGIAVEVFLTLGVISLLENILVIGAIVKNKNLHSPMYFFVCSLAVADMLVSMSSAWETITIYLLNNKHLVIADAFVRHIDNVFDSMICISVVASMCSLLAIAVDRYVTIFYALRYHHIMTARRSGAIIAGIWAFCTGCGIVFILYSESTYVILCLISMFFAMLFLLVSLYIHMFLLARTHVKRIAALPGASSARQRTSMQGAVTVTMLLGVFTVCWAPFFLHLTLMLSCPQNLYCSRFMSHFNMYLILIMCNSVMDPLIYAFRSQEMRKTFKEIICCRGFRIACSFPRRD
T1 sequence (P41143 whole entry): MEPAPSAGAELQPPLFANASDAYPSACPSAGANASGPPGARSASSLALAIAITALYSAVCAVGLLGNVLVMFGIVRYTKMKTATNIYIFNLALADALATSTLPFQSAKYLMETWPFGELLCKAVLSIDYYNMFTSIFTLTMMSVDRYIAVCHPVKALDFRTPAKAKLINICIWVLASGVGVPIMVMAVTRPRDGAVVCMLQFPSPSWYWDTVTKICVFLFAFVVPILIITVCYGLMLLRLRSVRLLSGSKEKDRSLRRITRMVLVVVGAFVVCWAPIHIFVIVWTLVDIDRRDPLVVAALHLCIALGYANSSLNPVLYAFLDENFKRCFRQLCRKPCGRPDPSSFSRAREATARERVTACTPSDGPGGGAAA
T10 sequence (Q99705 whole entry): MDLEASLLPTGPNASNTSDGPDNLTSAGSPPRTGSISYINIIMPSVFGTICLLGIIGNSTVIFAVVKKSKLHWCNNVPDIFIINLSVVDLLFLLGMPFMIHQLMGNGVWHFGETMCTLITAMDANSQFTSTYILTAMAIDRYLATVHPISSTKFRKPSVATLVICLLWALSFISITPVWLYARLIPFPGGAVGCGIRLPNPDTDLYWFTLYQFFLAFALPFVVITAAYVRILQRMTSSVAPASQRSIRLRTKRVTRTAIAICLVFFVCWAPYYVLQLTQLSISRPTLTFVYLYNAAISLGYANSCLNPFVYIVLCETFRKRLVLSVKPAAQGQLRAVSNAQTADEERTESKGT
T2 sequence (P25103 whole entry): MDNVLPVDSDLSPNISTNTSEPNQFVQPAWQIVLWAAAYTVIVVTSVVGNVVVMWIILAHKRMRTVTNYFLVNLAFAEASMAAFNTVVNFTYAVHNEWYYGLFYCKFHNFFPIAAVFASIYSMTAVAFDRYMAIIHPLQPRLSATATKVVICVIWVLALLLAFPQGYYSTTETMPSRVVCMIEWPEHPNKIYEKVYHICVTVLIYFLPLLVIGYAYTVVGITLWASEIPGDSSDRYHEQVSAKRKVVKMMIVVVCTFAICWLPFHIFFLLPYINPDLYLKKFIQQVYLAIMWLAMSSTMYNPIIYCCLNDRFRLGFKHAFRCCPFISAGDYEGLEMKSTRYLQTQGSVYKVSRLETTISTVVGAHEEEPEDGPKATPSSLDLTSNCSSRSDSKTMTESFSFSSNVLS
T6 sequence (P32245 whole entry): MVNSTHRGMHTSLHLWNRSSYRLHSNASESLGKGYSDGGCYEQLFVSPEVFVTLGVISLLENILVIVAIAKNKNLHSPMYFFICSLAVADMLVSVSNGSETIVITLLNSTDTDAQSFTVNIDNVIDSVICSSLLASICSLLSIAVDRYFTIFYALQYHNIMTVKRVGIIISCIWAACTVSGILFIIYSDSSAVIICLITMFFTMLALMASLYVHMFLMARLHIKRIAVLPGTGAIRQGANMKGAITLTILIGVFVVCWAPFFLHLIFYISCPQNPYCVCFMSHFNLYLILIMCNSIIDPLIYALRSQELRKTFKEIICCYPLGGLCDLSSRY
T7 sequence (P35372 whole entry): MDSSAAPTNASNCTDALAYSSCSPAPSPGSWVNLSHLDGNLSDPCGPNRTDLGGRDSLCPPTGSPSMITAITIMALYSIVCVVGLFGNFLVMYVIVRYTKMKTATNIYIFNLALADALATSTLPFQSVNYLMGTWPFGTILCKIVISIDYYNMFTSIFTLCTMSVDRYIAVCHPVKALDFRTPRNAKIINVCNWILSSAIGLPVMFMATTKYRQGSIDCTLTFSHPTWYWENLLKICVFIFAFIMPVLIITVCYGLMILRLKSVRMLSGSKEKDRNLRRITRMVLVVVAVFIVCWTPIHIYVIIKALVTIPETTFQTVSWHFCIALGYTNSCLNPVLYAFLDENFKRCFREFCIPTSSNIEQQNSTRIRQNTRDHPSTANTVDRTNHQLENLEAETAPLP
T11 sequence (P41145 whole entry): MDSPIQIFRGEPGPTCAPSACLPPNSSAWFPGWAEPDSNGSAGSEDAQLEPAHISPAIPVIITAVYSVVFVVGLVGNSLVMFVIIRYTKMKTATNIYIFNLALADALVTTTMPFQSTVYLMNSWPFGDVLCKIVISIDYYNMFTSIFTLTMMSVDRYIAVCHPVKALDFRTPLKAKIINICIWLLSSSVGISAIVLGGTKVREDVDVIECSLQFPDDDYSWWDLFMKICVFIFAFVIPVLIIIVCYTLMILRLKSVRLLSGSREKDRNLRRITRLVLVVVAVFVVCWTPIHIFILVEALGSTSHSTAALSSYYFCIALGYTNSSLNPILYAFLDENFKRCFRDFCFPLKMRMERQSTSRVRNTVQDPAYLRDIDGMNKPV
T4 sequence (P41146 whole entry): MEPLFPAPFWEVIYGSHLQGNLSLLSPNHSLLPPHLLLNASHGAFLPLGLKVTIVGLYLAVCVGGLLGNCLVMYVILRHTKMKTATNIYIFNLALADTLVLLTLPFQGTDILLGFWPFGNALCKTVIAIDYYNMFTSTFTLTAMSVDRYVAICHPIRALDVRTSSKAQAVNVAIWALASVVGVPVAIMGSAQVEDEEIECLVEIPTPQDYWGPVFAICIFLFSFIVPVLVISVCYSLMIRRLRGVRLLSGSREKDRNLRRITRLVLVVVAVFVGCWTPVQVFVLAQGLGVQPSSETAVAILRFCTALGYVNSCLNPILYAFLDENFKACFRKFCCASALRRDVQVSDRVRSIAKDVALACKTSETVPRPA

| Compound | A1 radioligand binding, percentage inhibition (Human δ-opioid (DOP); [3H]-Bremazocine) | A8 radioligand binding, percentage inhibition (Human neurokinin (NK1); [125I]-Substance P) | A5 radioligand binding, percentage inhibition (Human melanocortin (MC5); [125I]-NDP-αMSH) | A10 radioligand binding, percentage inhibition (Human opioid (ORL1); [125I]-Nociceptin) | A11 radioligand binding, percentage inhibition (Mouse urotensin (mUR2); [125I]-Urotensin II) | A4 radioligand binding, percentage inhibition (Human Melanocortin (MC4); [125I]-NDP-αMSH) | A7 radioligand binding, percentage inhibition (Human μ-opioid (MOP); [3H]-Naloxone) | A3 radioligand binding, percentage inhibition (Human Melanocortin (MC3); [125I]-NDP-αMSH) | A9 radioligand binding, percentage inhibition ([1]; [125I]-PYY) | A6 radioligand binding, percentage inhibition ([2]; [125I]-S36057) | A2 radioligand binding, percentage inhibition (Human κ-Opioid (KOP); [3H]-Diprenorphine) | other results |
| --- | --- | --- | --- | --- | --- | --- | --- | --- | --- | --- | --- | --- |
| CO[C@H]1[C@H](O)[C@@H](COCc2ccc(Cl)cc2)OC(OCc2ccccc2)[C@@H]1NC(=O)CCCNC(=N)N (some centres unmarked) [compound 93] | − (“−” indicates less than 50% inhibition at 10 μM) | + (“+” indicates greater than 50% inhibition at 10 μM) | + (“+” indicates greater than 50% inhibition at 10 μM) | − (“−” indicates less than 50% inhibition at 10 μM) | − (“−” indicates less than 50% inhibition at 10 μM) | − (“−” indicates less than 50% inhibition at 10 μM) | + (“+” indicates greater than 50% inhibition at 10 μM) | − (“−” indicates less than 50% inhibition at 10 μM) | − (“−” indicates less than 50% inhibition at 10 μM) | − (“−” indicates less than 50% inhibition at 10 μM) | − (“−” indicates less than 50% inhibition at 10 μM) | – |
| CO[C@H]1[C@H](O)[C@@H](COCc2ccc3ccccc3c2)OC(OCc2ccc(Cl)cc2)[C@@H]1NC(=O)CCNC(=N)N (some centres unmarked) [compound 98] | − (“−” indicates less than 50% inhibition at 10 μM) | + (“+” indicates greater than 50% inhibition at 10 μM) | + (“+” indicates greater than 50% inhibition at 10 μM) | − (“−” indicates less than 50% inhibition at 10 μM) | − (“−” indicates less than 50% inhibition at 10 μM) | + (“+” indicates greater than 50% inhibition at 10 μM) | − (“−” indicates less than 50% inhibition at 10 μM) | − (“−” indicates less than 50% inhibition at 10 μM) | − (“−” indicates less than 50% inhibition at 10 μM) | + (“+” indicates greater than 50% inhibition at 10 μM) | − (“−” indicates less than 50% inhibition at 10 μM) | – |
| CSC1O[C@H](COCc2ccc(Cl)cc2)[C@@H](O)[C@@H](OCc2ccc(-c3ccccc3)cc2)[C@H]1NC(=O)CCCNC(=N)N (some centres unmarked) [compound 292] | – | – | – | – | – | – | – | – | – | – | – | A1: inhibition of radioligand binding, human δ-opioid (DOP) (Human δ-opioid (DOP); [3H]-Bremazocine): − (“−” indicates less than 50% inhibition at 10 μM); A8: inhibition of radioligand binding, human neurokinin (NK1) (Human neurokinin (NK1); [125I]-Substance P): + (“+” indicates greater than 50% inhibition at 10 μM); A5: inhibition of radioligand binding, human melanocortin (MC5) (Human melanocortin (MC5); [125I]-NDP-αMSH): + (“+” indicates greater than 50% inhibition at 10 μM); A10: inhibition of radioligand binding, human opioid (ORL1) (Human opioid (ORL1); [125I]-Nociceptin): − (“−” indicates less than 50% inhibition at 10 μM); A11: inhibition of radioligand binding, mouse urotensin (mUR2) (Mouse urotensin (mUR2); [125I]-Urotensin II): − (“−” indicates less than 50% inhibition at 10 μM); A4: inhibition of radioligand binding, human melanocortin (MC4) (Human Melanocortin (MC4); [125I]-NDP-αMSH): − (“−” indicates less than 50% inhibition at 10 μM); A7: inhibition of radioligand binding, human μ-opioid (MOP) (Human μ-opioid (MOP); [3H]-Naloxone): − (“−” indicates less than 50% inhibition at 10 μM); A3: inhibition of radioligand binding, human melanocortin (MC3) (Human Melanocortin (MC3); [125I]-NDP-αMSH): − (“−” indicates less than 50% inhibition at 10 μM); A9: inhibition of radioligand binding, human neuropeptide Y (NPY-Y1) ([1]; [125I]-PYY): − (“−” indicates less than 50% inhibition at 10 μM); A6: inhibition of radioligand binding, human melanin-concentrating hormone (MCH1) ([2]; [125I]-S36057): − (“−” indicates less than 50% inhibition at 10 μM); A2: inhibition of radioligand binding, human κ-opioid (KOP) (Human κ-Opioid (KOP); [3H]-Diprenorphine): − (“−” indicates less than 50% inhibition at 10 μM) |
| CO[C@H]1[C@H](O)[C@@H](COCc2ccc3ccccc3c2)OC(OCc2ccc3ccccc3c2)[C@@H]1NC(=O)CCCNC(=N)N (some centres unmarked) [compound 73] | – | – | – | – | – | – | – | – | – | – | – | A1 radioligand binding inhibition (Human δ-opioid (DOP); human δ-opioid (DOP) membranes): − (“−” indicates less than 50% inhibition at 10 μM); A8 radioligand binding inhibition (Human neurokinin (NK1); human neurokinin NK1 membranes): + (“+” indicates greater than 50% inhibition at 10 μM); A5 radioligand binding inhibition (Human melanocortin (MC5); human melanocortin MC5 membranes): + (“+” indicates greater than 50% inhibition at 10 μM); A10 radioligand binding inhibition (Human opioid (ORL1); human ORL1 membranes): + (“+” indicates greater than 50% inhibition at 10 μM); A11 radioligand binding inhibition (Mouse urotensin (mUR2); mouse urotensin mUR2 membranes): − (“−” indicates less than 50% inhibition at 10 μM); A4 radioligand binding inhibition (Human Melanocortin (MC4); human melanocortin MC4 membranes): − (“−” indicates less than 50% inhibition at 10 μM); A7 radioligand binding inhibition (Human μ-opioid (MOP); human μ-opioid (MOP) membranes): + (“+” indicates greater than 50% inhibition at 10 μM); A3 radioligand binding inhibition (Human Melanocortin (MC3); human melanocortin MC3 membranes): − (“−” indicates less than 50% inhibition at 10 μM); A9 radioligand binding inhibition ([1]; human NPY-Y1 membranes): − (“−” indicates less than 50% inhibition at 10 μM); A6 radioligand binding inhibition ([2]; human MCH1 membranes): − (“−” indicates less than 50% inhibition at 10 μM); A2 radioligand binding inhibition (Human κ-Opioid (KOP); human κ-opioid (KOP) membranes): + (“+” indicates greater than 50% inhibition at 10 μM) |
